# Data taken from patent US20100028419A1, “MEMBRANE(S) AND USES THEREOF” (priority 2007, published 2010).
# Experiments:
# [1] = test system: amoeba Chaos cells; assay: Continuous addition of DPA (C22:5) into amoeba culture medium, TEM study; assay type: cell-based, Chaos carolinense; settings: 0.1 mM final concentration, fed Chaos cells with Paramecium present, 3 additions on alternate days, fixed at day 5
# Procedure: All-cis-4,7,10,13,16 Docosapentaneoic Acid (DPA, C22:5n-6) (Sigma) and Cis-7,10,13,16,19 DPA (C22:5n-3) (Sigma) were dissolved in Diethyl Ether and added to the amoeba culture media at a final concentration of 0.1 mM. DPA (n-3) and DPA (n-6) were added separately after amoeba washing and in the presence of the food organisms (Paramecium multimicronucleatum). The procedure was performed every alternative day for a total of 3 times according to the regular feeding schedule. At day 5 post-DPA treatment Chaos cells were fixed in 2.5% glutaraldehyde for TEM processing according to the procedure described in Example 6.
# [2] = test system: MCF-7 cells; assay: In vitro transfection: uptake of fragmented ODN-cubic membrane complexes, fluorescence microscopy and TEM; assay type: cell-based, human; settings: 5 h
# Procedure: Isolated mitochondria pellets (from fed, 10 days starved Chaos cells and mice liver) from Example 1 and transfected MCF-7 cell pellet prepared according to Example 4 were studied by the conventional TEM technique. Samples in the pellet forms were first fixed individually with 2.5% glutaraldehyde in 1×PBS at 4° C. After washing 4 times with 1×PBS buffer over 1 h to remove glutaraldehyde, the samples were post-fixed with 1% osmium tetroxide in 1× PBS buffer (pH 7.4) for 20 min at room temperature. The specimens were then washed 4 times with the 1×PBS buffer at 4° C. Thereafter 3% gelatin in PBS was added for 30 min before spinning down to collect the pellets at 2,500 rpm for 5 min. The specimens were stored at 4° C. overnight and the steps of adding 2.5% glutaraldehyde in PBS and washing with PBS were repeated for another cycle. The bigger specimens were trimmed into small cubes (1 mm in length) and washed with distilled water for 5 min. Dehydration through ethanol series was done using ethanol of 25%, 50%, 75%, 95% and 100% for 10 min each at room temperature. The specimens were then infiltrated with 100% acetone: resin in 1:1 ratio for 30 min at room temperature and with 100% acetone: resin in 1:6 ratio overnight. […]
# There were three negative controls. […] The remaining cells were viewed 5 h post-transfection under the fluorescence microscope for the uptake of tagged-ODNs.
Compound,inner mitochondrial membrane transformation to cubic organization (TEM) [1],inclusion bodies in cells (TEM) [2]
"CCCCC/C=C\C/C=C\C/C=C\C/C=C\C/C=C\CCC(=O)O [DPA (n-6), All-cis-4,7,10,13,16 Docosapentaneoic Acid]",enhanced their inner mitochondrial membrane transformation from random tubular (A) to cubic organization (D),
"CC/C=C\C/C=C\C/C=C\C/C=C\C/C=C\CCCCCC(=O)O [DPA (n-3), Cis-7,10,13,16,19 DPA]",did not have the same drastic effects on the inner mitochondrial membrane organization,
5′ tct ccc agc gtg cgc cat 3′ (DNA TCTCCCAGCGTGCGCCAT; chemistry not given here) [naked ODNs],,no inclusion bodies observed
